The results in this text go back to patent US20100311748A1, “HETEROCYCLIC AMIDES USEFUL FOR THE TREATMENT OF CANCER AND PSORIASIS” (ASTRAZENECA AB, priority 2007, published 2010).

For the experiment, the system named is Hedgehog pathway. The experiment can be described thus: Hedgehog Pathway Cellular Differentiation Assay (alkaline phosphatase production in C3H10T1/2 cells with Shh ligand). The class given is cell-based. Particulars: 72 h; for inhibition at 3 µM / IC50: Mus musculus; for inhibition at 3 µM: C3H 10T1/2, 3 μM compound; for IC50: C3H 10T1/2, Shh ligand conditioned media, alkaline phosphatase (pNp, 405 nm). Here is the method: Hedgehog Pathway Cellular Differentiation Assay The ability of compounds of the invention to inhibit the Hedgehog pathway can be determined by the following cell differentiation assay. C3H10T1/2 cells were plated into 384 well plates at a concentration of 5000 cells/well in DMEM/10% FBS. The following day the media was changed to 20% conditioned media (low serum media DMEM/2% FBS+Shh ligand). Compounds were solubilized in 100% DMSO to a concentration of 10 mM and then serially diluted three fold in 100% DMSO. The highest concentration in the cell plate was 30 μM and the lowest was 3 nM. The compounds were then added to the cells. Cell plates were incubated with the compound for 72 h and then assayed for alkaline phosphatase production using pNp as a substrate. Briefly, after 72 h of incubation, the media was aspirated from the cells and washed with 30 μl of PBS. PBS was aspirated off the cells and 15 μl of 1×RIPA cell lysis buffer is added on to the cells. The cell plates are then incubated at −80° C. for 30 minutes to insure proper cell lysis. The plates were then thawed back to RT. The substrate solution containing pNp at 1 mg/mL in diethanolamine buffer pH 9.8 was then added onto the lysed cells. The plates were incubated at 30° C. for color development and read at an absorbance of 405 nm. The percent inhibition and IC50 value was then calculated from the absorbance data using standard procedures.

[1] abbreviates: Shh ligand conditioned media, alkaline phosphatase.

The term inhibition denotes the drop in the measured response relative to a control, in per cent. A lower inhibition goes with a weak effect. In turn, `Cc1cc(C)c(-c2cn(C)c(C)n2)cc1NC(=O)c1ccc(OCc2ccccn2)cc1` [Example 73, N-(5-(1,2-dimethyl-1H-imidazol-4-yl)-2,4-dimethylphenyl)-4-(pyridin-2-ylmethoxy)benzamide] registered an inhibition at 3 µM under setting [1] of 85.8%.

In turn, `Cc1ccc(-c2ncc[nH]2)cc1NC(=O)c1ccc(OCc2ncccc2N2CCOCC2)cc1` [Example 137, N-(5-(1H-imidazol-2-yl)-2-methylphenyl)-4-((3-morpholinopyridin-2-yl)methoxy)benzamide] had an inhibition at 3 µM under setting [1] of 76.5%.

Under setting [1], `COc1ccc(C(=O)Nc2cc(-c3ncc[nH]3)ccc2C)cc1OC` [Example 154, N-[5-(1H-imidazol-2-yl)-2-methyl-phenyl]-3,4-dimethoxy-benzamide] returned an inhibition at 3 µM of 17.6%.

Under setting [1], `Cc1ccc(-c2ncc[nH]2)cc1NC(=O)c1cccc(N(C)C)c1` [Example 148, 3-dimethylamino-N-[5-(1H-imidazol-2-yl)-2-methyl-phenyl]benzamide] returned an inhibition at 3 µM of 9.1%.

In turn, `Cc1c[nH]c(-c2ccc(C)c(NC(=O)c3ccc(OCc4ccccc4C#N)cc3)c2)n1` [Example 44, 4-[(2-cyanophenyl)methoxy]-N-[2-methyl-5-(4-methyl-1H-imidazol-2-yl)phenyl]benzamide] came in with an inhibition at 3 µM under setting [1] of 80.7%.

In turn, `Cc1ccc(-c2ncc[nH]2)cc1NC(=O)c1ccc(OCC2CCCCN2)cc1` (centres unmarked) [Example 142, N-(5-(1H-imidazol-2-yl)-2-methylphenyl)-4-(piperidin-2-ylmethoxy)benzamide] came in with an inhibition at 3 µM under setting [1] of 31.3%.

Broadly, the IC50 is the concentration needed to halve the response being measured. The compound `Cc1ccc(-c2ncnc3nc[nH]c23)cc1NC(=O)c1ccc(OCc2ccccn2)cc1` [Example 18, N-[2-methyl-5-(7H-purin-6-yl)phenyl]-4-(pyridin-2-ylmethoxy)benzamide] gave an IC50 of 30 nM. This compound also registered an inhibition at 3 µM under setting [1] of 48.4%.

For `Cc1cn(C)c(-c2ccc(C)c(NC(=O)c3ccc(OCc4ccccn4)cc3)c2)n1` [Example 26, N-[5-(1,4-dimethyl-1H-imidazol-2-yl)-2-methylphenyl]-4-(pyridin-2-ylmethoxy)benzamide], testing at 3 µM under setting [1] gave an inhibition of 75.7%.

`Cc1cc(C)c(-c2cnc(C)n2C)cc1NC(=O)c1ccc(OCc2ccccn2)cc1` [Example 70, N-[5-(1,2-dimethyl-1H-imidazol-5-yl)-2,4-dimethylphenyl]-4-(pyridin-2-ylmethoxy)benzamide] came in with an inhibition at 3 µM under setting [1] of 78.1%.

Compound `Cc1ccc(-c2ccccn2)cc1NC(=O)c1ccc(OCc2ccccn2)cc1` [Example 9, N-(2-methyl-5-pyridin-2-yl-phenyl)-4-(pyridin-2-ylmethoxy)benzamide] had an IC50 of 120 nM. The compound further yielded an inhibition at 3 µM under setting [1] of 60.5%.

For `Cc1ccc(-c2nccn2C)cc1NC(=O)c1ccc(OCc2cc(N(C)CCN(C)C)ccc2C#N)cc1` [Example 116, 4-[(2-cyano-5-{[2-(dimethylamino)ethyl](methyl)amino}benzyl)oxy]-N-[2-methyl-5-(1-methyl-1H-imidazol-2-yl)phenyl]benzamide], under setting [1], the inhibition at 3 µM worked out at 83.4%.

The compound `Cc1ccc(-c2cn3ccsc3n2)cc1NC(=O)c1ccc(OCc2ccccn2)cc1` [Example 5, N-[2-methyl-5-(4-thia-1,6-diazabicyclo[3.3.0]octa-2,5,7-trien-7-yl)phenyl]-4-(pyridin-2-ylmethoxy)benzamide] yielded an inhibition at 3 µM under setting [1] of 68.8%.

Regarding `Cc1ccc(-c2cnc(N)cn2)cc1NC(=O)c1ccc(OCc2ccccn2)cc1` [Example 10, N-[5-(5-aminopyrazin-2-yl)-2-methyl-phenyl]-4-(pyridin-2-ylmethoxy)benzamide], the inhibition at 3 µM under setting [1] was determined as 63.5%.

In turn, `Cc1ccc(-c2ncc[nH]2)cc1NC(=O)c1ccc(OCc2cc(OCCN(C)C)ccn2)cc1` [Example 94, 4-({4-[2-(dimethylamino)ethoxy]pyridin-2-yl}methoxy)-N-[5-(1H-imidazol-2-yl)-2-methylphenyl]benzamide] registered an inhibition at 3 µM under setting [1] of 56.7%.

For the compound `Cc1ccc(-c2ncc[nH]2)cc1NC(=O)c1ccc(OCc2cc(N3CCN(C)CC3)ccn2)cc1` [Example 126, N-[5-(1H-imidazol-2-yl)-2-methylphenyl]-4-{[4-(4-methylpiperazin-1-yl)pyridin-2-yl]methoxy}benzamide], 3 µM produced 47.2% inhibition under setting [1].

`Cc1ccc(-c2nccn2C)cc1NC(=O)c1ccc(OCc2ccc(Br)cc2C#N)cc1` [Example 99, 4-[(4-bromo-2-cyanobenzyl)oxy]-N-[2-methyl-5-(1-methyl-1H-imidazol-2-yl)phenyl]benzamide] had an inhibition at 3 µM under setting [1] of 29.9%.

For orientation: % Inhibition means the share of the control response that was lost under treatment. Read a high % Inhibition as a response far below the control. For `Cc1ccc(-c2ncc[nH]2)cc1NC(=O)c1ccc(OCc2cccc(OCCO)n2)cc1` [Example 122], the “% Inhibition at 3 μM” value (3 μM compound, Shh ligand conditioned media, alkaline phosphatase) was 84.6%.

In the case of `Cc1ccc(-c2ncc[nH]2)cc1NC(=O)c1ccc(OCc2ncccc2O)cc1` [Example 144, N-(5-(1H-imidazol-2-yl)-2-methylphenyl)-4-((3-hydroxypyridin-2-yl)methoxy)benzamide], the inhibition at 3 µM under setting [1] is 8.8%.

As for `Cc1nc(-c2ccc(C)c(NC(=O)c3ccc(OCc4ccccn4)cc3)c2)c[nH]1` [Example 24, N-[2-methyl-5-(2-methyl-1H-imidazol-4-yl)phenyl]-4-(pyridin-2-ylmethoxy)benzamide], at 3 µM the inhibition under setting [1] was 81.1%.

As for `Cc1ccc(-c2ncc[nH]2)cc1NC(=O)c1ccc(OC(C)c2ccccn2)cc1` (centres unmarked) [Example 110, N-[5-(1H-imidazol-2-yl)-2-methylphenyl]-4-(1-pyridin-2-ylethoxy)benzamide], the inhibition at 3 µM under setting [1] stood at 92.3%.

The compound `Cc1cc(Cl)c(-c2ncc[nH]2)cc1NC(=O)c1ccc(OCc2ccccn2)cc1` [Example 76, N-[4-chloro-5-(1H-imidazol-2-yl)-2-methylphenyl]-4-(pyridin-2-ylmethoxy)benzamide] displayed an inhibition at 3 µM under setting [1] of 77.6%.

`Cc1cc(C)c(-c2ncc[nH]2)cc1NC(=O)c1ccc(OCc2ccccn2)cc1` [Example 67, N-[5-(1H-imidazol-2-yl)-2,4-dimethylphenyl]-4-(pyridin-2-ylmethoxy)benzamide] gave an inhibition at 3 µM under setting [1] of 77.1%.

In the case of `Cc1ccc(-c2ncc[nH]2)cc1NC(=O)c1ccc(C#Cc2ccccn2)cc1` [Example 107, N-[5-(1H-imidazol-2-yl)-2-methylphenyl]-4-(pyridin-2-ylethynyl)benzamide], the inhibition at 3 µM under setting [1] was found to be 92.3%.

Consider `COc1cccnc1COc1ccc(C(=O)Nc2cc(-c3ncc[nH]3)ccc2C)cc1` [Example 135, N-(5-(1H-imidazol-2-yl)-2-methylphenyl)-4-((3-methoxypyridin-2-yl)methoxy)benzamide], for which the inhibition at 3 µM under setting [1] came out at 76.9%.

`Cc1ccc(-c2nc3cc([N+](=O)[O-])ccc3[nH]2)cc1NC(=O)c1ccc(OCc2ccccn2)cc1` [Example 14, N-[2-methyl-5-(5-nitro-1H-benzoimidazol-2-yl)phenyl]-4-(pyridin-2-ylmethoxy)benzamide] returned an inhibition at 3 µM under setting [1] of 79.2%.

In the case of `Cc1ccc(-c2ncc[nH]2)cc1NC(=O)c1ccc(NC(C)c2ccccn2)cc1` (centres unmarked) [Example 118, N-[5-(1H-imidazol-2-yl)-2-methylphenyl]-4-[(1-pyridin-2-ylethyl)amino]benzamide], under setting [1], 3 µM produced 75.4% inhibition.

Turning to `Cc1ccc(-c2ccc(N)cn2)cc1NC(=O)c1ccc(OCc2ccccn2)cc1` [Example 6, N-[5-(5-aminopyridin-2-yl)-2-methyl-phenyl]-4-(pyridin-2-ylmethoxy)benzamide], under setting [1], testing at 3 µM gave an inhibition of 65.7%.
